Molecular target: T1, human Cot/Tpl2 kinase (Homo sapiens, UniProt P41279)
T1 construct: human Cot/Tpl2 kinase construct encoding residues 30-398; 6His (N); made in house; host or cells: Sf9 insect cells, baculovirus system (BD Biosciences)
Experiment: Tpl2/Cot kinase assay: GST-MEK1 phosphorylation detected by ELISA (DELFIA Eu)
Assay type: biochemical
Conditions: 0.4 nM Tpl2, 35 nM GST-MEK1, 50 uM ATP, 1 h at 30° C.
Outline: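 Substrate phosphorylation (GST-MEK1 Ser217/221) quantified by DELFIA europium ELISA, yielding IC50 values. Reaction: 1 h at 30° C, pH 7.2 MOPS buffer, 50 uM ATP, 35 nM GST-MEK1, 0.4 nM monomeric His-Tpl2 purified from Sf9 cells, compounds at 1% final DMSO; stopped with EDTA.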

T1 sequence (P41279 30-398): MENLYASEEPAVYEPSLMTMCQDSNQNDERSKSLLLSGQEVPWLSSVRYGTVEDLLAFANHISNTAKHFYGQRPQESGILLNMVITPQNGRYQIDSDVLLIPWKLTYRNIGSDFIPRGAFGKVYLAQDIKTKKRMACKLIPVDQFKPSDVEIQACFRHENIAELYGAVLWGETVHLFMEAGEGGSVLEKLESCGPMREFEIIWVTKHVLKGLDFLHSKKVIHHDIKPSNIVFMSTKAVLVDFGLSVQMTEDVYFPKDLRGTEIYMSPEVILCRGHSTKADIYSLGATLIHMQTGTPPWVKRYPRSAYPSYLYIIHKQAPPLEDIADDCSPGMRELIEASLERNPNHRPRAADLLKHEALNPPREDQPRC

SMILES | IC50
N#Cc1cnc2ccc(NCc3c[nH]c(=O)[nH]c3=O)cc2c1Nc1ccc(F)c(Cl)c1 [Example 228, 4-[(3-chloro-4-fluorophenyl)amino]-6-{[(2,4-dioxo-1,2,3,4-tetrahydropyrimidin-5-yl)methyl]amino}quinoline-3-carbonitrile] | 0.48 µM
N#Cc1ccc(CNc2ccc3ncc(C#N)c(Nc4ccc(F)c(Cl)c4)c3c2)cc1 [Example 19, 4-(3-Chloro-4-fluoro-phenylamino)-6-(4-cyano-benzylamino)-quinoline-3-carbonitrile] | 0.59 µM
CN(C)C=Nc1cc(Cl)c2ncc(C#N)c(Nc3ccc(F)c(Cl)c3)c2c1 [Example 206, N′-{8-chloro-4-[(3-chloro-4-fluorophenyl)amino]-3-cyanoquinolin-6-yl}-N,N-dimethylimidoformamide] | 7.4 µM
N#Cc1cnc2ccc(NCc3cccc(N)c3)cc2c1Nc1ccc(F)c(Cl)c1 [Example 14, 6-(3-Amino-benzylamino)-4-(3-chloro-4-fluoro-phenylamino)-quinoline-3-carbonitrile] | 0.14 µM
CCc1nc(CNc2cc(Cl)c3ncc(C#N)c(Nc4ccc(F)c(Cl)c4)c3c2)cn1CC(N)=O [Example 193, 2-(4-((8-chloro-4-(3-chloro-4-fluorophenylamino)-3-cyanoquinolin-6-ylamino)methyl)-2-ethyl-1H-imidazol-1-yl)acetamide] | 0.41 µM
N#Cc1cnc2c(O)cc(NCc3cnc[nH]3)cc2c1Nc1ccc(F)c(Cl)c1 [Example 181, 6-((1H-imidazol-5-yl)methylamino)-4-(3-chloro-4-fluorophenylamino) 8-hydroxyquinoline-3-carbonitrile] | 11.3 µM
CCN1CCCC(n2cc(CNc3cc(Cl)c4ncc(C#N)c(Nc5ccc(F)c(Cl)c5)c4c3)nn2)CC1 (stereo not shown) [Example 330, 8-chloro-4-[(3-chloro-4-fluorophenyl)amino]-6-({[1-(1-ethylazepan-4-yl)-1H-1,2,3-triazol-4-yl]methyl}amino)quinoline-3-carbonitrile] | 0.0085 µM
N#Cc1cnc2c(C(F)(F)F)cc(NCc3cncnc3)cc2c1Nc1ccc(F)c(Cl)c1 [Example 240, 4-[(3-chloro-4-fluorophenyl)amino]-6-[(pyrimidin-5-ylmethyl)amino]-8-(trifluoromethyl)quinoline-3-carbonitrile] | 0.19 µM
N#Cc1cnc2ccc(NCC3CCOCC3)cc2c1Nc1ccc(F)c(Cl)c1 [Example 61, 4-(3-Chloro-4-fluoro-phenylamino)-6-[(tetrahydro-pyran-4-ylmethyl)-amino]-quinoline-3-carbonitrile] | 0.81 µM
N#Cc1cnc2ccc(NCc3cccc(S(N)(=O)=O)c3)cc2c1Nc1ccc(F)c(Cl)c1 [Example 168, 3-((4-(3-chloro-4-fluorophenylamino)-3-cyanoquinolin-6-ylamino)methyl)benzenesulfonamide] | 0.15 µM
N#Cc1cnc2ccc(NCc3cc[nH]n3)cc2c1Nc1ccc(F)c(Cl)c1 [Example 27, 4-(3-Chloro-4-fluoro-phenylamino)-6-[(1H-pyrazol-3-ylmethyl)-amino]-quinoline-3-carbonitrile] | 0.074 µM
N#Cc1cnc2cc(N3CCOCC3)c(NCc3cnc[nH]3)cc2c1Nc1ccc(F)c(Cl)c1 [Example 160, 6-((1H-imidazol-5-yl)methylamino)-4-(3-chloro-4-fluorophenylamino)-7-morpholinoquinoline-3-carbonitrile] | > 40 µM
N#Cc1cnc2c(Cl)cc(NCc3cc[n+]([O-])cc3)cc2c1Nc1ccc(F)c(Cl)c1 [Example 271, 8-Chloro-4-[(3-chloro-4-fluorophenyl)amino]-6-{[(1-oxidopyridin-4-yl)methyl]amino}quinoline-3-carbonitrile] | 0.054 µM
Cc1cccc(CNc2cc(C(=O)N(C)C)c3ncc(C#N)c(Nc4ccc(F)c(Cl)c4)c3c2)c1 [Example 92, 4-(3-chloro-4-fluorophenylamino)-3-cyano-N,N-dimethyl-6-(3-methylbenzylamino)quinoline-8-carboxamide] | > 40 µM

Same assay, conditions: Table 2; Tpl2/Cot kinase, GST-MEK1 substrate, 50 uM ATP

SMILES | IC50
N#Cc1cnc2c(Br)cc(NCc3cn(C4CCCC4)cn3)cc2c1Nc1ccc(F)c(Cl)c1 [Example 632] | 0.23 µM
CN(C)C(=O)OCCCn1cc(CNc2cc(Br)c3ncc(C#N)c(Nc4ccc(F)c(Cl)c4)c3c2)nn1 [Example 584] | 0.0035 µM
COCCOCCn1cc(CNc2cc(Br)c3ncc(C#N)c(Nc4ccc(F)c(Cl)c4)c3c2)nn1 [Example 565] | 0.1 µM
N#Cc1cnc2c(Cl)cc(NC3CCCC3N=[N+]=[N-])cc2c1Nc1ccc(F)c(Cl)c1 (stereo not shown) [Example 629] | 0.42 µM
CN1CCN(C(=O)CNc2cc(Cl)c3ncc(C#N)c(Nc4ccc(F)c(Cl)c4)c3c2)CC1 [Example 468] | 0.36 µM
N#Cc1cnc2c(Cl)cc(N)cc2c1Nc1ccc(F)c(Cl)c1 [Example 409] | 0.92 µM
CC(C)(C)OC(=O)N1CCC[C@H]1CNc1cc(Cl)c2ncc(C#N)c(Nc3ccc(F)c(Cl)c3)c2c1 [Example 618] | > 3 µM
CC(CNc1cc(Cl)c2ncc(C#N)c(Nc3ccc(F)c(Cl)c3)c2c1)c1ccncc1 (stereo not shown) [Example 639] | 0.2 µM
N#Cc1cnc2c(Br)cc(NCc3cnn(-c4ccccc4)n3)cc2c1Nc1ccc(F)c(Cl)c1 [Example 434] | > 40 µM
Cn1nnc(CCNc2cc(Cl)c3ncc(C#N)c(Nc4ccc(F)c(Cl)c4)c3c2)n1 [Example 467] | 1.2 µM
N#Cc1cnc2c(Cl)cc(NCC(=O)c3ccccc3)cc2c1Nc1ccc(F)c(Cl)c1 [Example 447] | 0.87 µM
N#Cc1cnc2c(Br)cc(NCc3cn(COCc4ccccc4)nn3)cc2c1Nc1ccc(F)c(Cl)c1 [Example 638] | > 3 µM
Cc1nc(CNc2cc(Cl)c3ncc(C#N)c(Nc4ccc(F)c(Cl)c4)c3c2)c(C)[nH]1 [Example 431] | 0.22 µM
N#Cc1cnc2c(Br)cc(NCc3cn(-c4cc[n+]([O-])cc4)nn3)cc2c1Nc1ccc(F)c(Cl)c1 [Example 577] | 0.015 µM
N#Cc1cnc2c(CCO)cc(NCc3cnc[nH]3)cc2c1Nc1ccc(F)c(Cl)c1 [Example 462] | 1.2 µM
CC(C)(C)OC(=O)N1CCN(CCCn2cc(CNc3cc(Cl)c4ncc(C#N)c(Nc5ccc(F)c(Cl)c5)c4c3)nn2)CC1 [Example 592] | 0.23 µM
CC(C)N1CCC(Cn2cc(CNc3cc(Br)c4ncc(C#N)c(Nc5ccc(F)c(Cl)c5)c4c3)nn2)CC1 [Example 567] | 0.029 µM
CN(C)C(=O)Cn1cc(CNc2cc(Cl)c3ncc(C#N)c(Nc4ccc(F)c(Cl)c4)c3c2)nn1 [Example 613] | 0.00054 µM
N#Cc1cnc2c(Br)cc(N)cc2c1Nc1cccc(Cl)c1 [Example 365] | 0.39 µM

Same assay, conditions: Tpl2/Cot kinase, GST-MEK1 substrate, 50 uM ATP

SMILES | IC50
CC(CNc1cc(Cl)c2ncc(C#N)c(Nc3ccc(F)c(Cl)c3)c2c1)c1ccncc1 (stereo not shown) [Example 806] | 0.2 µM
N#Cc1cnc2c(Br)cc(NCc3cncn3CCN3CCOCC3)cc2c1Nc1ccc(F)c(Cl)c1 [Example 668] | 0.16 µM
N#Cc1cnc2c(Cl)cc(NCc3cn(Cc4ccncc4)cn3)cc2c1Nc1ccc(F)c(Cl)c1 [Example 787] | 0.0053 µM
N#Cc1cnc2c(Cl)cc(NCc3cn(CCC4CCNCC4)nn3)cc2c1Nc1ccc(F)c(Cl)c1 [Example 692] | 0.13 µM
N#Cc1cnc2c(Cl)cc(NCCNS(=O)(=O)c3ccccn3)cc2c1Nc1ccc(F)c(Cl)c1 [Example 856] | 0.82 µM
CSCn1cc(CNc2cc(Br)c3ncc(C#N)c(Nc4ccc(F)c(Cl)c4)c3c2)nn1 [Example 705] | 0.012 µM
CC(=O)N(CCNc1cc(Cl)c2ncc(C#N)c(Nc3ccc(F)c(Cl)c3)c2c1)Cc1ccccn1 [Example 846] | 0.17 µM
N#Cc1cnc2c(Cl)cc(NCc3cn(CCCNC4CCCC4)nn3)cc2c1Nc1ccc(F)c(Cl)c1 [Example 914] | 0.052 µM
N#Cc1cnc2c(Br)cc(NCc3cnc4cnccn34)cc2c1Nc1ccc(F)c(Cl)c1 [Example 700] | 0.11 µM
N#Cc1cnc2c(Br)cc(NCc3cnc4ccccn34)cc2c1Nc1ccc(F)c(Cl)c1 [Example 701] | 0.28 µM
N#Cc1cnc2c(Cl)cc(NCc3cn(CC(=O)Nc4cccnc4)nn3)cc2c1Nc1ccc(F)c(Cl)c1 [Example 821] | 0.0027 µM
N#Cc1cnc2c(Cl)cc(NCc3cn(CC4CCCN4)nn3)cc2c1Nc1ccc(F)c(Cl)c1 (stereo not shown) [Example 721] | 0.0091 µM
N#Cc1cnc2c(Cl)cc(NCCNC(=O)c3cccnc3)cc2c1Nc1ccc(F)c(Cl)c1 [Example 860] | > 3 µM
CC(C)S(=O)(=O)NCCCn1cc(CNc2cc(Cl)c3ncc(C#N)c(Nc4ccc(F)c(Cl)c4)c3c2)nn1 [Example 907] | 0.0045 µM
CN1CC(CCn2cc(CNc3cc(Cl)c4ncc(C#N)c(Nc5ccc(F)c(Cl)c5)c4c3)nn2)N(C)C1=O (stereo not shown) [Example 790] | 0.0061 µM
CC(C)Cn1cc(CNc2cc(Cl)c3ncc(C#N)c(Nc4ccc(F)c(Cl)c4)c3c2)nn1 [Example 847] | 0.17 µM

Same assay, conditions: Tpl2/Cot kinase, GST-MEK1 substrate, 50 uM ATP, 1 h at 30° C.; Table 2

SMILES | IC50
CC#CCn1cc(CNc2cc(Cl)c3ncc(C#N)c(Nc4ccc(F)c(Cl)c4)c3c2)nn1 [Example 995] | 0.24 µM
N#Cc1cnc2c(Cl)cc(NCc3cn(Cc4cncc(C(O)(C(F)(F)F)C(F)(F)F)c4)nn3)cc2c1Nc1ccc(F)c(Cl)c1 [Example 1025] | 0.91 µM
CC(C)(C)OC(=O)N1CCC(n2cc(CNc3cc(Cl)c4ncc(C#N)c(NC5CCCC6(CCCC6)C5)c4c3)nn2)CC1 (stereo not shown) [Example 974] | > 3 µM
N#Cc1cnc2c(Cl)cc(NCc3cn(C4CCN(CCF)CC4)nn3)cc2c1Nc1ccc(F)c(Cl)c1 [Example 1016] | 0.015 µM
N#Cc1cnc2c(Cl)cc(NCc3cn(C4CCC(NC5CCCC5)CC4)nn3)cc2c1Nc1ccc(F)c(Cl)c1 (stereo not shown) [Example 1038] | 0.017 µM
N#Cc1cnc2c(Cl)cc(NCc3cn(CC(O)c4ccccn4)nn3)cc2c1Nc1ccc(F)c(Cl)c1 (stereo not shown) [Example 993] | 0.048 µM

Source: patent publication US20060264460A1 (Wyeth, priority 2005, published 2006)
